Laboratory results taken from patent publication US8110599B2 (priority 2006, dated 2012).
Values after ≈ are worked out from the molar mass of the structure shown. Where two headings read alike, the source gives them in different places.

Columns and labels:
[1] = system: S180 carcinoma
Method: S-180 cells were inoculated subcutaneously to mice at the axillary region at 0.5-1×10^6 cells/mouse. […] The drugs were given 6-8 times in total, one day spaced between two administrations for all the experiments. At the end of experiments, the tumors were removed and weighed, and the tumor inhibition ratio (TIR) was calculated. Pharmaceutical efficacy was considered with TIR≧40% and P<0.05, after statistical analysis.
The prepared solution was filtered through 0.45 and 0.22 μm membrane for sterilization, divided into stock aliquots, and stored at 4° C. for future use. The stock aliquot was further diluted with sterilized PBS (pH=7.4) to the required concentration before drug administration.
5-FU, CTX, and carboplatin solutions were freshly prepared in normal saline before use. […] Mice with the same sex were used in any individual experiment.
S180 cell line was from S180 bearing mice, and was intraperitoneally passaged in Kunming mouse.
Carcinoma inoculation and drug treatment: To each mouse, 0.2 ml of the S180 and H22 cell suspensions (2.5×10^6 cells/ml) were subcutaneously injected into the right axillary region (a total of 5×10^5 cells per mouse), respectively. On the second day, the animals were grouped at random and drugs were administered accordingly. […] The drugs were given once every other day with a total of 6-8 treatments.
Determination of tumor weight and calculation of TIR (tumor inhibition ratio), were as follows. Body weight was recorded on the day after the last drug administration and animals were then sacrificed. The carcinoma was removed and weighed, and TIR (%) was calculated according the following formula: […]

[2] = Solubility and solution stability; assay type: physicochemical; details: pure AMP, white powder
[3] = system: human leukemia K562 cells; assay: MTT assay, in vitro killing of K562 cells; assay type: cell-based; details: for IC50: Homo sapiens
Method: (1) AMP Na: An AMP-Na solution was prepared according to the method of Example 1 at an AMP:Na2CO3 ratio (w/w) of 5:3, which was then diluted 10 times with PBS (pH 6.5) to obtain the AMP-Na stock solution. The stock solution was further diluted by PBS (pH 7.4) to the concentration for cell exposure.
All the drug solutions described above were freshly prepared before use, and the final concentration for cell exposure was 100, 50, 25, 12.5, and 6.25 μg/ml, respectively.
K562 cells were cultured in RPMI1640 culture media supplemented with 10% calf serum, 100 U/ml of penicillin and streptomycin.
1. K562 cells at their log growth period were collected and centrifuged at 1,000 rpm for 5 minutes. The supernatant was discarded, and the cell density was adjusted to 1×10^5 cells/ml with RPMI 1640 cell culture media.
2. Ten microliter of the drug solution at various concentrations and 90 μl of the cell suspension or cell culture media were added to each well of the 96-well plate, followed by incubation in a CO2 incubator.
3. Cells were cultured for another 48-hour or 72-hour. Ten microliter of the MTT solution was added to per well 4 hours before the end of the experiment. Then, the solution was discarded and 100 μl of 10% SDS was added for termination of the experiment.
4. The absorbance of the solution was measured at 570 nm using a plate reader after being shaken on a shaker for 10 minutes. Results were printed out and recorded.
The inhibition ratio (%) was calculated from the following equation: […]
IC50 was calculated by linear regression of drug concentration v.s. cell inhibition ratio.

[4] = in vivo; details: both, Kunming, mouse
Method: Major organs of dead animals were removed, fixed, and subject to pathological study. […] Normal saline (36.25 ml) and 37% HCl (0.75 ml) were added to obtained the AMP stock solution with a concentration of 50 mg/ml and pH of 7.3 (concentrations of solvents including PEG 400, propanediol, and ethanol were 0.03, 0.0445, and 0.015 g/ml, respectively). […] The stock solution was further diluted in normal saline to the required concentration, and was i.v. or i.p. administered to mice at 0.2 ml/10 g bodyweight.
Both male and female Kuming mice of SPF grade, weighing 18-22 g, were used in the experiment. […] All data were analyzed by DAS software.

[5] = carboplatin experiment, carboplatin 25 mg/kg, ip alone

In the case of `O=c1[nH]cc(F)c(=O)[nH]1` [5-FU, reference compound], the “TIR (%)” value ([1]; 5-FU experiment, 5-FU 20 mg/kg, ip alone) was 45.55% and the “Tumor weight (g) (X ± SD)” value ([1]; 5-FU experiment, 5-FU 20 mg/kg, ip alone, 11 days before sacrifice) was 1.08 ± 0.60 g.

For `O=C1c2c(O)cc(O)cc2O[C@H](c2cc(O)c(O)c(O)c2)[C@H]1O` [AMP-DMSO, AMPelopsin, reference compound], the Solubility in water [2] was “does not dissolve”, the IC50 ([3]; K562, 72 h) was 4.09 µg/mL (≈ 12.8 µM) and the IC50 ([3]; K562, after drug exposure for 48 h and 72 h) was 32.3 µg/mL (≈ 101 µM). The IC50 ([3]; K562, cell treatment for 48 h) was 32.3 µg/mL (≈ 101 µM), the LD50 at 7 day [4] was 1000 mg/kg and the LD50 at 7 day ([4]; iv) was 1000 mg/kg.

With `O.O.O.O.O.O=C1c2c(O)cc([O-])cc2OC(c2cc([O-])c(O)c([O-])c2)C1[O-].[Na+].[Na+].[Na+].[Na+]` (stereo not shown) [AMP-Na, pentahydrate of the AMPelopsin unsaturated sodium salt] the “IC50 in killing K562 cells” value ([3]; 48 h) was 29.56 µg/mL, the “Killing effects towards K562 cells, AMP-Na compared with AMP-DMSO” value ([3]; 48 h and 72 h) was “no significant difference” and the “IC50 in killing K562 cells” value ([3]; 72 h) was 4.23 µg/mL. The “IC50 in killing K562 cells” value ([3]; after drug exposure for 48 h and 72 h) was 29.56 µg/mL, the “TIR (%)” value ([1]; 5-FU experiment, AMP-Na 50 mg/kg, ip, alone or jointly with 5-FU) was 4.43% and the “Tumor weight (g) (X ± SD)” value ([1]; 5-FU experiment, AMP-Na 50 mg/kg, ip, alone or jointly with 5-FU, 11 days) was 1.89 ± 0.75 g. For the same molecule, the “TIR (%)” value ([1]; 5-FU experiment, AMP-Na 75 mg/kg, ip, alone or jointly with 5-FU) was 31.28%, the “Tumor weight (g) (X ± SD)” value ([1]; 5-FU experiment, AMP-Na 75 mg/kg, ip, alone or jointly with 5-FU, 11 days) was 1.36 ± 0.69 g and the “Tumor weight (g) (X ± SD)” value ([1]; 5-FU experiment, AMP-Na 112 mg/kg, ip, alone or jointly with 5-FU, 11 days) was 1.32 ± 0.78 g. The “TIR (%)” value ([1]; 5-FU experiment, AMP-Na 112 mg/kg, ip, alone or jointly with 5-FU, sodium salt) was 33.49%, the “TIR (%)” value ([1]; 5-FU experiment, AMP-Na 167 mg/kg, ip, alone or jointly with 5-FU) was 4.45% and the “Tumor weight (g) (X ± SD)” value ([1]; 5-FU experiment, AMP-Na 167 mg/kg, ip, alone or jointly with 5-FU, 11 days) was 1.89 ± 0.59 g. For the same molecule, the “T1R (%)” value ([1]; CTX experiment, AMP-Na 50 mg/kg, ip, alone or jointly with CTX) was 7.66%, the “Tumor weight (g) (X ± SD)” value ([1]; CTX experiment, AMP-Na 50 mg/kg, ip, alone or jointly with CTX, 12 days) was 1.66 ± 0.84 g and the “T1R (%)” value ([1]; CTX experiment, AMP-Na 75 mg/kg, ip, alone or jointly with CTX) was 6.84%. For the same molecule, the “Tumor weight (g) (X ± SD)” value ([1]; CTX experiment, AMP-Na 75 mg/kg, ip, alone or jointly with CTX, 12 days) was 1.67 ± 1.03 g, the “T1R (%)” value ([1]; CTX experiment, AMP-Na 112 mg/kg, ip, alone or jointly with CTX) was −3.86% and the “Tumor weight (g) (X ± SD)” value ([1]; CTX experiment, AMP-Na 112 mg/kg, ip, alone or jointly with CTX, 12 days) was 1.86 ± 1.21 g. The “T1R (%)” value ([1]; CTX experiment, AMP-Na 167 mg/kg, ip, alone or jointly with CTX) was −16.25%, the “Tumor weight (g) (X ± SD)” value ([1]; CTX experiment, AMP-Na 167 mg/kg, ip, alone or jointly with CTX, 12 days) was 2.08 ± 1.07 g and the “TIR (%)” value ([1]; carboplatin experiment, AMP-Na 50 mg/kg, ip, alone or jointly with carboplatin) was 23.22%. For the same molecule, the “Tumor weight (g) (X ± SD)” value ([1]; carboplatin experiment, AMP-Na 50 mg/kg, ip, alone or jointly with carboplatin, 10 days) was 1.12 ± 0.30 g, the “TIR (%)” value ([1]; carboplatin experiment, AMP-Na 75 mg/kg, ip, alone or jointly with carboplatin) was 3.99% and the “Tumor weight (g) (X ± SD)” value ([1]; carboplatin experiment, AMP-Na 75 mg/kg, ip, alone or jointly with carboplatin, 10 days) was 1.40 ± 0.58 g. The “TIR (%)” value ([1]; carboplatin experiment, AMP-Na 112 mg/kg, ip, alone or jointly with carboplatin) was 13.87%, the “Tumor weight (g) (X ± SD)” value ([1]; carboplatin experiment, AMP-Na 112 mg/kg, ip, alone or jointly with carboplatin, 10 days) was 1.26 ± 0.69 g and the “TIR (%)” value ([1]; carboplatin experiment, AMP-Na 167 mg/kg, ip, alone or jointly with carboplatin) was −7.47%. For the same molecule, the “Tumor weight (g) (X ± SD)” value ([1]; carboplatin experiment, AMP-Na 167 mg/kg, ip, alone or jointly with carboplatin, 10 days) was 1.57 ± 0.71 g and the “Tumor suppression, AMP-Na alone” value ([1]; single administration, S-180 bearing mice) was “no or weak tumor suppression”.

With `N.N.O=C([O-])C1(C(=O)[O-])CCC1.[Pt+2]` [carboplatin, reference compound] the “Body weight (g) after” value [1, 5] was 18.57/25.75 g, the “TIR (%)” value [1, 5] was 49.52% and the “Tumor weight (g) (X ± SD)” value ([1]; carboplatin experiment, carboplatin 25 mg/kg, ip alone, 10 days before sacrifice) was 0.74 ± 0.28 g.
